Measurements reported in US20230038201A1, “TRANSFER FILM, PHOTOSENSITIVE MATERIAL, PATTERN FORMING METHOD, MANUFACTURING METHOD OF CIRCUIT BOARD, AND MANUFACTURING METHOD OF TOUCH PANEL” (FUJIFILM Corporation, priority 2020, published 2023).
Read-outs that look alike come from different tables or passages of the source.

Experiments:
[1] = Measurement of pKa of compound β in ground state (acid titration, 0.1 N HCl, methanol/water); conditions: for pKa: methanol/water mixture
[2] = Measurement of ε365 and ε365/ε313 of compound β (molar absorption coefficients in acetonitrile); assay type: physicochemical; design: key to ε365 of Compound β: molar absorption coefficient at 365 nm in (cm·mol/L)^−1; conditions: for ε365/ε313: compound β
Description: (Measurement and Evaluation of ε365 and ε365/ε313)
A molar absorption coefficient ((cm·mol/L)^−1, “ε365”) of the compound β at 365 nm and a molar absorption coefficient ((cm·mol/L)^−1, “ε313”) of the compound β at 313 nm were obtained, and a value (ε365/ε313) obtained by divided ε365 by ε313 was obtained.
The ε365 and ε313 of the compound β are molar absorption coefficients measured by dissolving the compound β in acetonitrile. In a case where the compound β was insoluble in acetonitrile, a solvent for dissolving the compound β may be appropriately changed.

[3] = pKa in ground state, compound β, pKa of the conjugate acid for nitrogen-containing aromatic compounds
[4] = pKa of Compound β in ground state
[5] = pKa of Compound β in ground state, compound β alone
[6] = pKa of Compound β in ground state, compound β, ground state
[7] = pKa of Compound β in ground state, ground state
[8] = molar absorption coefficient at 365 nm
[9] = molar absorption coefficient at 365 nm in acetonitrile
[10] = molar absorption coefficient at 365 nm, compound β alone
[11] = molar absorption coefficient at 365 nm, in acetonitrile
[12] = compound β, pKa of the conjugate acid for nitrogen-containing aromatic compounds

Row | SMILES | pKa [1, 3] | pKa [1, 4] | pKa [1, 5] | pKa [1, 6] | pKa [1, 7] | ε365 of Compound β [2] | ε365 of Compound β ([2]; compound β alone) | ε365 of Compound β [2, 8] | ε365 of Compound β [2, 9] | ε365 of Compound β [2, 10] | ε365 of Compound β [2, 11] | other results
1 | CC(=O)c1ccncc1 [4-Acetylpyridine] | 3.1 | – | – | – | – | – | – | – | – | – | – | ε365/ε313 ([2]; in acetonitrile): <1
2 | O=C(c1ccccc1)c1ccncc1 [4-Benzoylpyridine] | 2.9 | – | – | – | – | – | – | – | – | – | – | ε365/ε313 ([2]; in acetonitrile): <1
3 | Cc1cc(C)c2c(C)cc(C)nc2c1 [2,4,5,7-Tetramethylquinoline] | – | 6.23 | 6.23 | 6.23 | 6.23 | <10 | <10 | <10 | <10 (cm·mol/L)^−1 | <10 | <10 (cm·mol/L)^−1 | –
4 | CCCCc1nccc2ccccc12 [Example 1-n-Butylisoquinoline, 1-n-Butylisoquinoline] | – | 5.27 | 5.27 | 5.27 | 5.27 | <10 | <10 | <10 | <10 (cm·mol/L)^−1 | <10 | <10 (cm·mol/L)^−1 | –
5 | c1ccc(-c2c3ccccc3nc3ccccc23)cc1 [Example 9-Phenylacridine, 9-Phenylacridine] | – | 4.04 | 4.04 | 4.04 | 4.04 | – | – | – | – | >1000 | – | –
6 | Cc1cc(C)c2c(C)cc(C)nc2c1 [Example B7, 2,4,5,7-tetramethylquinoline] | 6.23 | – | – | – | – | – | – | – | – | – | – | –
7 | c1ccc2cnccc2c1 [Example B1, isoquinoline] | 4.7 | 4.69 | 4.69 | 4.69 | 4.69 | <10 | <10 | <10 | <10 (cm·mol/L)^−1 | <10 | <10 (cm·mol/L)^−1 | pKa in ground state [1, 12]: 4.69; ε365/ε313 ([2]; in acetonitrile): <1
8 | Nc1ccncc1 [Example B13, 4-aminopyridine] | – | – | – | – | – | – | – | – | – | – | – | pKa (physchem): 9.2
9 | Cc1nccc2ccccc12 [Example B6, 1-Me-isoquinoline] | – | – | – | – | – | <10 | <10 | <10 | <10 (cm·mol/L)^−1 | <10 | <10 (cm·mol/L)^−1 | pKa of Compound β in ground state [1]: 5.31; pKa of Compound β in ground state ([1]; compound β alone): 5.31; pKa of Compound β in ground state ([1]; compound β, ground state): 5.31; pKa in ground state [1, 12]: 5.31; pKa of Compound β in ground state ([1]; ground state): 5.31
10 | Cc1cc(C)c2ccccc2n1 [Example B12, 2,4-dimethylquinoline] | 5.67 | 5.67 | 5.67 | 5.67 | 5.67 | <10 | – | <10 | <10 (cm·mol/L)^−1 | <10 | <10 (cm·mol/L)^−1 | –
11 | c1ccc2c(c1)cnc1ccccc12 [Phenanthridine] | 3.8 | – | – | – | – | – | – | – | – | – | – | ε365/ε313 ([2]; in acetonitrile): <1
12 | c1ccc2ncccc2c1 [Example B2, quinoline] | 4.2 | 4.15 | 4.15 | 4.15 | 4.15 | <10 | <10 | <10 | <10 (cm·mol/L)^−1 | <10 | <10 (cm·mol/L)^−1 | pKa in ground state [1, 12]: 4.15; ε365/ε313 ([2]; in acetonitrile): <1
13 | c1ccc(-c2c3ccccc3nc3ccccc23)cc1 [Example B10, 9-phenylacridine] | 4.04 | – | – | – | – | – | – | – | – | – | – | –
14 | COc1cc(C)nc2ccccc12 [Example 2-Methyl-4-methoxyquinoline, 2-Methyl-4-methoxyquinoline] | – | 6.51 | 6.51 | 6.51 | 6.51 | <10 | <10 | <10 | <10 (cm·mol/L)^−1 | <10 | <10 (cm·mol/L)^−1 | –
15 | CCCCc1ncc(C)c2ccccc12 [Example B5, 1-n-butyl-4-methylisoquinoline] | 5.9 | – | – | – | – | – | – | – | – | – | – | –
16 | Cc1c2ccccc2nc2ccccc12 [Example B9, 9-methylacridine] | 5.4 | – | – | – | – | – | – | – | – | – | – | –
17 | CCCCc1ncc(C)c2ccccc12 [Example 1-n-Butyl-4-methylisoquinoline, 1-n-Butyl-4-methylisoquinoline] | – | 5.9 | 5.9 | 5.9 | 5.9 | <10 | <10 | <10 | <10 (cm·mol/L)^−1 | <10 | <10 (cm·mol/L)^−1 | –
18 | Clc1ccccn1 [Example 2-Chloropyridine, 2-Chloropyridine] | – | – | – | – | – | <10 | <10 | <10 | <10 (cm·mol/L)^−1 | <10 | <10 (cm·mol/L)^−1 | pKa of Compound β in ground state [1]: 0.70; pKa of Compound β in ground state ([1]; compound β alone): 0.70; pKa of Compound β in ground state ([1]; compound β, ground state): 0.70; pKa of Compound β in ground state ([1]; ground state): 0.70
19 | Cc1c2ccccc2nc2ccccc12 [Example 9-Methylacridine, 9-Methylacridine] | – | 5.4 | 5.4 | 5.4 | 5.4 | 6300 | 6300 | 6300 | 6300 (cm·mol/L)^−1 | 6300 | 6300 (cm·mol/L)^−1 | –
20 | Clc1ccccn1 [Example B14, 2-chloropyridine] | – | – | – | – | – | – | – | – | – | – | – | pKa [1]: 0.7
21 | c1ccc2nc3ccccc3cc2c1 [Example B3, acridine] | 4.7 | 4.67 | 4.67 | 4.67 | 4.67 | 4900 | 4900 | 4900 | 4900 (cm·mol/L)^−1 | 4900 | 4900 (cm·mol/L)^−1 | pKa in ground state [1, 12]: 4.67; ε365/ε313 ([2]; in acetonitrile): >3
22 | CCCCc1nccc2ccccc12 [Example B4, 1-n-butylisoquinoline] | 5.27 | – | – | – | – | – | – | – | – | – | – | –
23 | Nc1ccncc1 [Example 4-Aminopyridine, 4-Aminopyridine] | – | 9.2 | 9.2 | 9.2 | 9.2 | <100 | <100 | <100 | <100 (cm·mol/L)^−1 | <100 | <100 (cm·mol/L)^−1 | –
24 | COc1cc(C)nc2ccccc12 [Example B8, 2-methyl-4-methoxyquinoline] | 6.51 | – | – | – | – | – | – | – | – | – | – | –
25 | c1cnc2c(c1)CCCC2 [5,6,7,8-Tetrahydroquinoline] | 5.9 | – | – | – | – | – | – | – | – | – | – | ε365/ε313 ([2]; in acetonitrile): <1
26 | c1ccncc1 [Example B11, pyridine] | – | – | – | – | – | <10 | <10 | <10 | <10 (cm·mol/L)^−1 | <10 | <10 (cm·mol/L)^−1 | –
